We go through five compounds from patent publication US20020061866A1, “Pharmaceutical compositions comprising in combination a bisphosphonate and a matrix metalloproteinase inhibitor” (priority 1999, published 2002).

The test system of test [1] is MMP-2 production and secretion by PC-3 ML cells. Conditions: in vitro and in vivo; cited from earlier work.
For test [2], the system named is human PC-3 ML prostatic cancer subclones. Conditions: pretreatment of SCID mice; cited from earlier work.
For test [3], the system named is human estrogen-independent breast cancer MDA-231 cells. Conditions: nontransfected MDA-231 cells, daily subcutaneous administration; cited from earlier work.
A further test deals with MMP-2 secretion by BMSC. Briefly: Determination of gelatinase A (MMP-2) levels by gelatin substrate gel zymography. In kind it is cell-based, human. Conditions: 48 h. The procedure: (§1) BMSC are obtained from 7 patients with MM after long term culture of bone marrow samples. Bone marrow mononuclear cells are isolated by Ficoll-Hypaque density centrifugation. The cells are plated in DMEM supplemented with 10% FCS and allowed to attach for 3 days, after which the medium is renewed. After 2 to 3 weeks of culture, a confluent adherent cell monolayer is obtained and then, after two passages using trypsin/ETA solution, BMSC are recovered for study. Cells are maintained in DMEM supplemented with 10% FCS, 2 mmol/L glutamine, 100 μg/mL streptomycin, 100 U/mL penicillin, and 5. 10^−5 mol/L 2-β-mercaptoethanol.
Adherent BMSC (10^4 cells) plated in 96-well plates are preincubated for 24 hours with either pamidronate or zoledronate. Then the medium is replaced by a fresh one without FCS but in the presence of different concentrations (10^−6, 10^−7, 10^−8, 10^−9 Mol/L) of each bisphosphonate. After a 48-hour incubation period, the supernatants are collected and stored at −20° C. until analysis. MMP-2 production is shown by gelatin substrate gel zymography. The supernatants are mixed with sodium dodecyl sulfate (SDS) sample buffer without reducing agent and then, proteins are separated by SDS-polyacrylamide gel electrophoresis in 7.5% polyacrylamide gels containing gelatin at 1 mg/ml, as previously described by Heussen and Dowdle(1980 Ann. Biochem. 102: 196-202) and adjusted for minigel format. After electrophoresis, SDS is removed from the gels by an incubation in 2.5% Triton X-100 for half an hour at room temperature. The gels are then incubated at 37° C. in a buffer containing 50 mM/L Tris-HCl 5 mM/L CaCl2, pH 7.6 for 24 hours. The gels were stained with Coomassie blue R250 (0.25%). […] The intensity of the gelatinolytic bands is analysed by densitometry. No interference between bisphosphonates and gelatin substrate gel zymography is observed using this assay (data not shown).

For test [4], the system named is human myeloma cell lines (HMCL) LP-1, OPM-2 and JJN-3. Briefly: Proliferation of HMCL, [3H]-thymidine incorporation (three cell lines together). Type of test: cell-based. Conditions: for inhibition at 500 µM: Homo sapiens, 72 h, all the HMCL. The procedure:
(§2) The human myeloma cell lines (HMCL) LP-1 and OPM-2 were obtained from DSM (Braunschweig, Germany). JJN-3 was kindly provided by B Van Campo (VUB, Belgium). Cells are maintained in RPMI 1640 culture medium supplemented with 10% fetal calf serum (FCS), 2mM glutamine, antibiotics (100 IU/ml penicillin and 100 μg/ml streptomycin) and 10 μM 2-β-mercaptoethanol.
(§3) The three HMCL are studied Le., LP-1, OPM-2 and JJN-3. Proliferation assays are performed in 96-well round-bottom microtiter plates at a cell density of 10^5 cells/mL. Cells are incubated for 3 days at 37° C. in a 5% CO2 humidified atmosphere with or without recombinant human IL-6 (rhIL-6) at 5 ng/ml, in the presence (or not) of the bisphosphonate of interest. Then, […] of […] is added during the last 18 hours. [^3H]-thymidine, incorporation is quantified by liquid scintillation spectroscopy.
(Incorporation of labelled thymidine or its analogues reports DNA synthesis.)

Test [5] relates to constitutive production of IL-6 by BMSC. Briefly: Determination of IL-6 concentrations by ELISA. In kind it is cell-based, human. Particulars: 48 h. How it is done: as §1
Adherent BMSC (10^4 cells) plated in 96-well plates are preincubated for 24 hours with either pamidronate or zoledronate. The medium is replaced by a fresh one containing 2% FCS and different concentrations of each bisphosphonate: 10^−6, 10^−7, 10^−8, 10^−9, 10^−10, 10^−11 Mol/L of zoledronate and 10^−6, 10^−7, 10^−8, 10^−9, 10^−10 Mol/L of pamidronate respectively. After a 48-hour incubation period, the supernatants are collected and stored at −20° C. until analysis. L6 A production is measured by ELISA (ELISA test concentrations ranging from 10 to 500 pg/mL) (Innotest, Besancon, France). No interference between the bisphosphonates and ELISA is observed in this study (data not shown). Six of the seven BMSC are tested for production of IL-6 in the presence of bisphosphonates.
(In general: ELISA stands for enzyme-linked immunosorbent assay.)

The next test relates to BMSC. Description: Survival experiments, BMSC apoptosis by APO 2.7 flow cytometry. Type of test: cell-based, human. Conditions: 10^−4 mol/L, 3-day incubation. The procedure:
as §1
Adherent BMSC (3×10^5 cells) are plated in 25 cm^2 flasks and are incubated with either pamidronate (APD) or zoledronate, at the following concentrations: 10^−4 and 10^−5 mol/L. A control without bisphosphonate is performed After a 3-day incubation period, cells are washed with PBS and removed from the flasks using trypsin-EDTA for 20 seconds. The percentage of apoptotic cells is determined by flow cytometry using APO 2.7 mAb (Immunotech, Marseilles, France) (ibid.).
In general terms: Flow cytometry measures light scatter and fluorescence of single cells or particles in a stream.

Another test has as its system LP-1. Description: Proliferation of HMCL, [3H]-thymidine incorporation. Particulars: for IC50: Homo sapiens, LP-1, 72 h, 3 days. Type of test: cell-based, human. The procedure: as §2, §3
The test system of another test is JJN-3. The test is described as above. Particulars: for concentration at which proliferation returns to the level of the control: JJN-3. In kind it is cell-based, human. The procedure: as §2, §3
A further test concerns OPM-2. The test is described as above. Type of test: cell-based, human. Conditions: for IC50: Homo sapiens, OPM-2, 72 h, 3 days. How it is done: as §2, §3
Test [6] concerns IL-1β-induced MMP-1 secretion by BMSC. Briefly: Determination of interstitial collagenase (MMP-1) levels by ELISA. Type of test: cell-based, human. Particulars: IL-1β (10 ng/ml) stimulated, 48 h, mean ± SD. How it is done: as §1
Adherent BMSC (15×10^3 cells) plated in 96-well plates are preincubated for 24 hours with either pamidronate or zoledronate. Then the cells are stimulated by IL-1β (10 ng/ml) in the presence of different concentrations (10^−6, 10^−7, 10^−8 and 10^−9 Mol/L) of each bisphosphonate without FCS. After a 48-hour incubation period, supernatants are collected and stored at −20° C. until analysis. MMP-1 levels are measured by ELISA (Amersham, Les Ulis, France). This assay measures MMP-1 irrespective of its mode of presentation (i.e. free or bound, active or not).

In the next test the test system is LP-1 cells. Description: Analysis of cell cycle, propidium iodide flow cytometry. Type of test: cell-based, human. Conditions: LP-1, 5×10^−4 Mol/L, 4 day incubation; control 36%. The procedure:
LP-1 cells (2×10^5 cells) plated in a 24 well-plate are incubated in the presence of 5×10^−4 Mol/L of either pamidronate or zoledronate. A control without bisphosphonate is performed. Cells are recovered after a 4day incubation period and washed. They are then incubated for 40 minutes at 37° C. with a solution of Triton×100 0.1%, Sodium Citrate 0.1%, 5 IU of RNAse and stained with propidium iodide (PI) 50 mg/L: Flow cytometry analysis is performed on a FACSCalibur using a CELLQuest program (Becton Dickinson). Data are gated on the F12-Area venus FL2-Width cytogram to exclude doublets and agregates, and a minimum of 2.5×10^4 gated cells is collected per sample. Analysis of the cell cycle was performed using the Modfit LT for Mac V2.01 program (Verity Software House, Inc). Apoptotic cells were detected as a subdiploid peak as described by Zamai et al. (1993, Cytometry 14: 891-897)

Broadly, the inhibition is the change of the read-out against control, counted positive when it falls. For orientation: IC50 means the concentration that inhibits the measured activity by half. Read a low IC50 as higher potency.

Values joined by “and” are separate entries in the source; they are usually repeats but may differ in a detail not shown here. Equal entries are not always repeated.

`NCCCC(O)(P(=O)(O)O)P(=O)(O)O` [alendronate, 4-amino-1-hydroxybutane-1,1-diphosphonic acid]: the “production and secretion of MMP-2 by PC-3 ML cells” value in test [1] is reported as “independently reduced, in part”. In [2], the “establishment of bone metastases” value was “partially blocked”.

Consider `CCCCCN(C)CCC(O)(P(=O)(O)O)P(=O)(O)O` [ibandronate, 1-hydroxy-3-(methylpentylamino)-propylidene-bisphosphonic acid], for which the “osteolytic lesions in bone (radiographs)” value in [3] is “markedly decreased”.

On to `NCCC(O)(P(=O)(O)O)P(=O)(O)O` [pamidronate, (3-amino-1-hydroxypropylidene) bis-phosphonate], for which the “MMP-2 upregulation (72 kDa gelatinase activity, densitometry)” value with MMP-2 secretion by BMSC (10^−6 mol/L) is reported as 165%±27%. Also, the “percentage of proliferation, of that of the control” value in [4] (5×10^−4 Mol/L, the three cell lines, 3 days) amounted to 25%. In [4] (5×10^−4 Mol/L, 3 days), this compound came in with an inhibition at 500 µM of 75%. Moreover, in test [4] (except for JJN-3), the “concentration up to which dose-dependent inhibition of proliferation is observed” value worked out at 5e-05 mol/L. Moreover, in test [5] (BMSC), the “concentration at which IL-6 production returns to the basal level” value is 10^−11 mol/L. In test [5] (not proportional to dose, six BMSC samples, p=0.05), the “inhibition of IL-6 production by BMSC” value is given as 40%±14%. Also, the “APO 2.7 stained (apoptotic) BMSC” value in the test with BMSC is given as 97%. Also, the IC50 came to 207 µM with LP-1; 107 µM with JJN-3 (Homo sapiens, JJN-3, 72 h, 3 days); 293 µM in the test on OPM-2. Also, the “concentration at which proliferation returns to the level of the control” value in the test with JJN-3 came out at 1e-05 mol/L. Further, the “inhibition of MMP-1 secretion by BMSC” value in test [6] is reported as 21%±20%.

Consider `CC(=O)O[C@H]1C(=O)[C@@]2(C)[C@H]([C@H](OC(=O)c3ccccc3)[C@]3(O)C[C@H](OC(=O)[C@H](O)[C@@H](NC(=O)c4ccccc4)c4ccccc4)C(C)=C1C3(C)C)[C@]1(OC(C)=O)CO[C@@H]1C[C@@H]2O` [taxol], for which, in test [1], the “production and secretion of MMP-2 by PC-3 ML cells” value is recorded as “independently reduced, in part”.

`O=P(O)(O)C(O)(Cn1ccnc1)P(=O)(O)O` [zoledronate, (1-hydroxy-2-(1H-imidazole-1-yl)ethylidene) bisphosphonate]: the “MMP-2 upregulation (72 kDa gelatinase activity, densitometry)” value was 180%±12% and 205%±7% in the test on MMP-2 secretion by BMSC (10^−6 mol/L); 159%±16% with MMP-2 secretion by BMSC (10^−9 mol/L). Moreover, the inhibition at 500 µM in test [4] (5×10^−4 Mol/L, 3 days) is about 95%. For the same compound, the “concentration at which IL-6 production returns to the basal level” value in test [5] (BMSC) is 10^−9 mol/L. Also, the inhibition at 1 µM in test [5] (Homo sapiens, BMSC, 10^−6 mol/L, p=0.05, read-out: maximum inhibition of IL-6 production by BMSC) is 60%. Besides, the “APO 2.7 stained (apoptotic) BMSC” value in the test on BMSC stood at 24%. The IC50 in the test on LP-1 stood at 193 µM; in the test with OPM-2, 155 µM. For the same compound, the “concentration at which normal proliferation rate is recovered” value in the test with LP-1 (LP-1) and with OPM-2 (OPM-2) was 5e-05 mol/L in each case. The “concentration at which proliferation returns to the level of the control” value in the test with JJN-3 stood at 1e-05 mol/L. For the same compound, the “inhibition of MMP-1 secretion by BMSC” value in test [6] is 44%±14%. Besides, the “percentage of cells in S phase” value with LP-1 cells came to 60%.
